The source of these data is article PMC7170481, “Inhibition of Ammonia Monooxygenase from Ammonia-Oxidizing Archaea by Linear and Aromatic Alkynes” (Applied and Environmental Microbiology, 2020).

Broadly, the % inhibition is the drop in the measured response relative to a control, in per cent. A low value points to a response near the control. Usually inhibition stands for the relative decrease from the control value, in per cent.

What all share (assay): inhibition of NH3-dependent nitrite production by intact cells
Common to all, as to format: cell-based

Assay [1] relates to T1, pMMO from Methylococcus capsulatus (Bath).
T1 construct: gene pmoB; sMMO excluded by naphthalene assay
The note with it: 20 mM NH4+, 20 mM formate as reductant, 10 mM PIPES pH 7, 37°C, 30 min preincubation.

In assay [2] the target is T2, AMO from "Ca. Nitrosotalea sinensis" Nd2 (Nitrosotalea sinensis, UniProt A0A2H1EFS5+A0A2H1EG39+A0A2H1EG64).
T2 construct: gene amoA; native membrane enzyme complex in intact cells (not purified)
The source says: inhibition of NH3-dependent nitrite production by intact cells on AMO from "Ca.

Assay [3] concerns the target T3, AMO from Nitrosomonas europaea (Nitrosomonas europaea, UniProt Q04507+Q04508+Q82T63).
T3 construct: gene amoA1; native membrane enzyme complex in intact cells (not purified); genome carries duplicate amo operons
T3 sequence (Q04507 2-276): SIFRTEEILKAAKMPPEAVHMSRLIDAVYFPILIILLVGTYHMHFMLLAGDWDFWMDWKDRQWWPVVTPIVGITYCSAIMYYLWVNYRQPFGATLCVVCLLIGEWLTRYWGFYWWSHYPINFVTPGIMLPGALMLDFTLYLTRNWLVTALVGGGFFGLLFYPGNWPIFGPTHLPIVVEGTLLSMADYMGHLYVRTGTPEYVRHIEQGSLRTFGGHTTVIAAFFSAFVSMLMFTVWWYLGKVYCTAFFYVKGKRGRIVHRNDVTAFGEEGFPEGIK
T3 sequence (Q04508 26-420): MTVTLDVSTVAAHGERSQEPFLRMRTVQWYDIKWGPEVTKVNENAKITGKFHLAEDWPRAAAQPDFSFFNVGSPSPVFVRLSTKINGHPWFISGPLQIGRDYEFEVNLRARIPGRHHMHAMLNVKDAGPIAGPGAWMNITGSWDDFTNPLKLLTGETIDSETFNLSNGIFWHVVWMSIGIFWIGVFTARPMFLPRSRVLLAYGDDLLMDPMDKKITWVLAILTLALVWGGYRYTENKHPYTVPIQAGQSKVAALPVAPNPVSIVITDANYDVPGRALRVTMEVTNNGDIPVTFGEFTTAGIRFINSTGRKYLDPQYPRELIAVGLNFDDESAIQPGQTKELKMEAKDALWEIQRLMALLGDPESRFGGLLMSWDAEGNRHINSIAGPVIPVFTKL
T3 sequence (Q82T63 1-271): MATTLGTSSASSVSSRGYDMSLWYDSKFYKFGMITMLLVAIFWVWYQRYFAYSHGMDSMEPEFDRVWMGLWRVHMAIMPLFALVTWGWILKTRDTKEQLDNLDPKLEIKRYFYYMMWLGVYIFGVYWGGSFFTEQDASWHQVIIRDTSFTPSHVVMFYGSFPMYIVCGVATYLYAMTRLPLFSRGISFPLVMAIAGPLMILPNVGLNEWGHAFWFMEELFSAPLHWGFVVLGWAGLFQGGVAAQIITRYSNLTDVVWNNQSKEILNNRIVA

Assay [4] concerns the target T4, AMO from "Ca. Nitrosocosmicus franklandus" C13 (Candidatus Nitrosocosmicus franklandianus, UniProt A0A484I8C2+A0A484I9U7+A0A484IBG0).
T4 construct: gene amoA; native membrane enzyme complex in intact cells (not purified); copper-dependent multimeric
T4 sequence (A0A484I9U7 1-216): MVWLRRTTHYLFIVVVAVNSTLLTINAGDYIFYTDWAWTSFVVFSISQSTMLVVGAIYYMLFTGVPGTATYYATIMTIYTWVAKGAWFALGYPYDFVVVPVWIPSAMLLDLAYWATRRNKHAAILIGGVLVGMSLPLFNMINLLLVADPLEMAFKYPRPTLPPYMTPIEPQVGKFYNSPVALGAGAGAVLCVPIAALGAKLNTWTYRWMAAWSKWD
T4 sequence (A0A484I8C2 1-192): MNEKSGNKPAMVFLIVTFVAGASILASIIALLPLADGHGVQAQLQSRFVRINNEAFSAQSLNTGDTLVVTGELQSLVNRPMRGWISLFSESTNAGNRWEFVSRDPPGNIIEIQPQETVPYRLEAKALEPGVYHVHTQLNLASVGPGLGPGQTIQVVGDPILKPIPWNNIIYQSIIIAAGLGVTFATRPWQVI
T4 sequence (A0A484IBG0 1-187): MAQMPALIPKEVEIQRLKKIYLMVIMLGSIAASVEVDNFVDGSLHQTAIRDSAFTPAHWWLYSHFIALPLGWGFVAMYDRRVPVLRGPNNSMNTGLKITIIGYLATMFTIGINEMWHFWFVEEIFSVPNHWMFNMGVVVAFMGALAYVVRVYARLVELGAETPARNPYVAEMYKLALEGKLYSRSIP
The source says: inhibition of NH3-dependent nitrite production by intact cells on AMO from "Ca. Nitrosocosmicus franklandus" C13 | partial inhibition of NH3 oxidation by “Ca.

The target of assay [5] is T3, AMO from Nitrosomonas europaea. The note with it: 1 mM NH4+, 50 mM sodium phosphate pH 7.7, 2 mM MgCl2, 30°C, 30 min preincubation.

T2 sequence (A0A2H1EG64 24-239 limits assumed): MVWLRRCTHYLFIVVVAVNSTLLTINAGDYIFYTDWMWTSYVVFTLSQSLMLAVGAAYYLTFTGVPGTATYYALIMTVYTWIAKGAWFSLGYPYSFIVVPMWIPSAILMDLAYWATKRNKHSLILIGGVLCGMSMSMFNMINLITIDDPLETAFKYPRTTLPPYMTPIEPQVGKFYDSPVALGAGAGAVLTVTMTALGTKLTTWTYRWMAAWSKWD
T2 sequence (A0A2H1EFS5 1-188): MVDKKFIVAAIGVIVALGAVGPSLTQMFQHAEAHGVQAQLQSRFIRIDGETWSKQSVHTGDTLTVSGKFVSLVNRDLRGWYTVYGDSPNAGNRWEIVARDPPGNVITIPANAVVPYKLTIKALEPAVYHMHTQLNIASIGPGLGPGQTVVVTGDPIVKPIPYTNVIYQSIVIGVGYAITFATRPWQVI
T2 sequence (A0A2H1EG39 1-187): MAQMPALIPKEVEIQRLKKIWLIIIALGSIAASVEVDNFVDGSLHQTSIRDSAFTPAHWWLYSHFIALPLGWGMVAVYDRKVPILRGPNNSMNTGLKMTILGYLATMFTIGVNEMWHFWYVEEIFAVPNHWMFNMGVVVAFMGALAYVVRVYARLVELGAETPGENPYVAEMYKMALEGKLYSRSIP

On to `C#CCCC` [C5, 1-pentyne], for which the “% inhibition at 10 μM” value in assay [1] was greater than 20%. Further, the inhibition at 10 µM in assay [2] was 70 ± 1%; in assay [3], 98 ± 1%; in assay [4], 14 ± 1%.

Consider `C#CCCCC` [C6, 1-hexyne], for which the “% inhibition at 10 μM” value in assay [1] is recorded as ~ 10%; in assay [5], “AMO activity was completely inhibited by C6 to C8 1-alkynes”.

For the compound `C#CCCCCC` [C7, 1-heptyne], the figures for the “% inhibition at 10 μM” value in assay [1] and in assay [5] were ~ 10% and “AMO activity was completely inhibited by C6 to C8 1-alkynes”, respectively.

`C#CCCCCCC` [C8, 1-octyne]: the “% inhibition at 10 μM” value in assay [5] is reported as “AMO activity was completely inhibited by C6 to C8 1-alkynes”.

Consider `C#Cc1ccccc1` [PA, phenylacetylene], for which the inhibition at 0.5 µM in assay [3] (read-out: % inhibition at 0.5 μM) stood at 52.5 ± 1.7%. Also, the inhibition at 5 µM in assay [4] (read-out: % inhibition at 5 μM) is 55.4 ± 1.4%.
